These results are taken from patent US12410141B2, “Anti-cancer spirocyclic-guanidine compounds and uses thereof” (The Johns Hopkins University, priority 2020, dated 2025).

Usually IC50 stands for the concentration needed to halve the response being measured.

For one data set, the system named is HCC1806. Description: MTT cytotoxicity assay, HCC1806. The class given is cell-based. Particulars: HCC1806, breast, 72 hr, read-out: IC50, cell killing. The procedure: (§1) All cell lines were obtained from the American Type Culture Collection (ATCC) and cultured in the specified medium supplemented with 10% fetal bovine serum, 100 IU/mL penicillin, and 100 μg/mL streptomycin at 37° C. in a humidified 5% CO2/95% air incubator. To assess drug cytotoxicity cells were seeded at 2,500 cells/well (10,000 cells/well for MM lines and primary cells) in 100 μL medium in 96-well plate. […]
(§2) It was examined whether the RPN13 inhibitor, RA475, was cytotoxic for cancer cell lines using the MTT assay.
A general note: Tetrazolium dyes change colour on reduction, which living cells bring about.

A short description of data set [1]: Solubility compared with RA190. The class given is physicochemical. Conditions: compared with prototypic RPN13 inhibitor RA190.
The subject of data set [2] is ES2. Description: MTT cytotoxicity assay, ES2. Type of data set: cell-based. Particulars: ES2, ovarian, 72 hr, read-out: IC50, cell killing. The procedure:
as §1, §2

In data set [3] the test system is human foreskin fibroblasts (HFF). The data set can be described thus: MTT cytotoxicity assay, human foreskin fibroblasts. The class given is cell-based. Particulars: non-transformed human foreskin fibroblasts, 72 hr, highest concentration tested 2.5 μM, read-out: IC50, cell killing. The protocol:
as §1, §2

The next data set deals with SUM149. The data set can be described thus: MTT cytotoxicity assay, SUM149. Type of data set: cell-based. Particulars: SUM149, breast, 72 hr, read-out: IC50, cell killing. The protocol: as §1, §2
The next data set concerns OVCAR3. Description: Flow cytometry analysis of cell death, OVCAR3. Type of data set: cell-based. Conditions: 1 μM or 2 μM, 16 hr. The protocol:
(§3) 10^5 cells were re-suspended in binding buffer, 5 μL of Annexin V-PE (Apoptosis Detection Kit I (BD Pharmingen) and 5 μL of 7-AAD were then added into the cells, which were then incubated at room temperature for 15 minutes and analyzed by flow cytometry on a FACSCalibur using CellQuest software (Becton Dickinson).
(§4) Two ovarian cancer cell lines, ES2 and OVCAR3, were treated with 1 μM or 2 μM RA475 and 16 hr later the cells were harvested and stained with 7-AAD and Annexin V. 7-AAD is a DNA dye that can enter dying cells and Annexin V is commonly used to detect apoptotic cells by its ability to bind to phosphatidylserine, an early marker of apoptosis when it is exposed on the outer leaflet of the plasma membrane.
On the technique in general: Flow cytometry measures light scatter and fluorescence of single cells or particles in a stream.

Another data set has as its system PEO23. The data set can be described thus: MTT cytotoxicity assay, PEO23. The class given is cell-based. Conditions: PEO23, ovarian, 72 hr, read-out: IC50, cell killing. The protocol:
as §1, §2

In the next data set the test system is HepG2. Description: MTT cytotoxicity assay, HepG2. The class given is cell-based. Conditions: HepG2, liver, 72 hr, read-out: IC50, cell killing. The procedure: as §1, §2
The next data set relates to DLD-1. Description: MTT cytotoxicity assay, DLD-1. Type of data set: cell-based. Particulars: DLD-1, colon, 72 hr, read-out: IC50, cell killing. The procedure: as §1, §2
The test system of a further data set is BT549. Description: MTT cytotoxicity assay, BT549. The class given is cell-based. Conditions: BT549, breast, 72 hr, read-out: IC50, cell killing. The procedure:
as §1, §2

A further data set deals with Br23C. Description: MTT cytotoxicity assay, Br23C. Type of data set: cell-based. Conditions: glioblastoma multiforme, 72 hr, read-out: IC50, cell killing. The protocol:
as §1, §2

The test system of data set [4] is HCC1806 cells stably expressing 4UbFL. The data set can be described thus: 4UbFL proteasome reporter, HCC1806 cells. Type of data set: cell-based. Particulars: 4 hr treatment, IVIS imager. The protocol: Data are presented as IVIS image (FIG. 8A) and bioluminescence units (FIG. 8B).
4T1 and HCC1806 cells were transfected with 4UbFL plasmid using TransIT2020 transfection reagent for a period of 48 hrs and cells were selected using G418 antibiotic from single colonies. Selected cells were seeded in a 24-well plate (50,000/well) and incubated for 18 h at 37° C. in an incubator. Next, cells were treated with compounds for the period of 4 hr and Luciferin was added (50 uL each well, 7.8 mg/mL) and imaged through an IVIS200 instrument and plotted as a bioluminescent value or fold increase to DMSO control.

The next data set relates to MDA-MB-468. The data set can be described thus: MTT cytotoxicity assay, MDA-MB-468. Particulars: MDA-MB-468, breast, 72 hr, read-out: IC50, cell killing. The class given is cell-based. The procedure:
as §1, §2

The next data set deals with PEA1. Description: MTT cytotoxicity assay, PEA1. Conditions: PEA1, ovarian, 72 hr, read-out: IC50, cell killing. The class given is cell-based. The protocol: as §1, §2
Data set [5] concerns ES2. Description: Flow cytometry analysis of cell death, ES2. Type of data set: cell-based. Particulars: 1 μM or 2 μM, 16 hr. The protocol: as §3, §4
A further data set relates to MC38. Description: MTT cytotoxicity assay, MC38. Type of data set: cell-based. Particulars: MC38, colon, 72 hr, read-out: IC50, cell killing. The protocol:
as §1, §2

The subject of another data set is SKOV3. The data set can be described thus: MTT cytotoxicity assay, SKOV3. The class given is cell-based. Particulars: SKOV3, ovarian, 72 hr, read-out: IC50, cell killing. The procedure:
as §1, §2

The next data set concerns TSH1. The data set can be described thus: MTT cytotoxicity assay, TSH1. Particulars: TSH1, thyroid, 72 hr, read-out: IC50, cell killing. The class given is cell-based. The procedure:
as §1, §2

The target in another data set is T1, 42 kDa RPN13 (Homo sapiens, UniProt Q16186).
T1 construct: endogenous in cells; host or cells: ES2 cell lysate (clarified, in MPER buffer)
Description: RA190B competitive labeling assay in ES2 cell lysate. The class given is binding. Conditions: ES2 cell lysate pre-incubated 45 min at 4° C. (bortezomib or Up compounds 5 μM), then RA190B 20 μM. The procedure: Clarified cell lysate (40 ug/sample) in MPER buffer was pretreated with streptavidin-coated magnetic beads for 45 min at 4° C. to deplete non-specific biotinylated proteins in the cell lysate. […] Next, the samples were mixed with Laemmli sample buffer (BioRad) and boiled for 5 min. The proteins were separated using a 4-15% Bio-Rad Mini-PROTEAN SDS-PAGE gel (1 hr at 100 V), and transferred to PVDF membrane overnight at 4° C. (24 V). The membrane was blocked with 5% BSA in PBST for 1 hr at RT and washed for 20 minutes (3× with PBST). Then the membrane was probed with HRP-streptavidin (1:10,000 in PBST) for 1 hr at RT, washed for 30 min (3× with PBST), and developed using HyGLO chemiluminescent detection reagent (Denville) for biotin detection.
ES2 cell lysates were incubated with 20 μM RA190B for 45 min at 4° C., and then separated by SDS-PAGE, transferred to a PVDF membrane.

Where “and” joins values, the source holds several entries; their conditions need not be identical. Equal values may be shown once.

T1 sequence (Q16186 whole entry): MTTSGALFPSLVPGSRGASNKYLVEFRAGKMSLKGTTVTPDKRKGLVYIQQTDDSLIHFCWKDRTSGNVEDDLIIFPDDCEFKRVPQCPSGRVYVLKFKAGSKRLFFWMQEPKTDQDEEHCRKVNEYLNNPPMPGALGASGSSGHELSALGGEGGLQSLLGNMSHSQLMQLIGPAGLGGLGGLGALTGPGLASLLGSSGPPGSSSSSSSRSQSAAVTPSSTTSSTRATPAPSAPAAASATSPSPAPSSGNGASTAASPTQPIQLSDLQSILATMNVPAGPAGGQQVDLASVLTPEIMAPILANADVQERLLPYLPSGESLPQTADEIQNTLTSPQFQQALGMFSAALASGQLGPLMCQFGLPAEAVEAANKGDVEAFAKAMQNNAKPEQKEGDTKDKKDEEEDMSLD

On to `Cl.Cl.N#Cc1ccc(/C=C2/C(=O)/C(=C/c3ccc(C#N)cc3)C23CCN(C(=N)N)CC3)cc1` [RA475], for which the IC50 in the data set with HCC1806 is 113 nM; in the data set with ES2 [2] it was 160 nM; in [3], more than 2500 nM; in the data set on SUM149, 100 nM; with PEO23, 350 nM; in the data set with HepG2, 241 nM. Besides, the IC50 was 491 nM in the data set on DLD-1; 229 nM with BT549; 750 nM with Br23C; 292 nM with MDA-MB-468; 406 nM with PEA1; 359 nM with MC38. The IC50 was 300 nM and 190 nM in the data set with SKOV3; 114 nM with TSH1. Besides, in data set [1], the “solubility relative to RA190” value is “better solubility”. Also, the “7-AAD and Annexin V double positive cells” value with OVCAR3 and with ES2 [5] was “dose-dependent induction” throughout. In addition, in [4], the “bioluminescence of 4UbFL reporter” value is given as “dose-dependent increase”.

Turning to `N#Cc1ccc(/C=C2/C(=O)/C(=C/c3ccc(C#N)cc3)C23CCNCC3)cc1` [Up284, reference compound], the “competition with binding of RA190B to the 42 kDa RPN13” value at 42 kDa RPN13 was “competed”.
